Our source for the EC50 and IC50 values is ChEMBL document CHEMBL1201862, “PubChem BioAssay data set” (2004).

Activity calls are given as the source filed them.

In assay [1] the target is Peroxisome proliferator-activated receptor gamma/Nuclear receptor coactivator 2 (Homo sapiens, UniProt P37231). As to the kind of experiment: TR-FRET dose response biochemical High Throughput Screening assay for agonists of the steroid receptor coactivator 2 (SRC-2) recruitment by the peroxisome proliferator-activated receptor gamma (PPAR gamma): non-selective agonists. [Related pubchem assays: 1297, 1032 ]. It counts as functional.

Assay [2] has as its target Peroxisome proliferator-activated receptor gamma/Nuclear receptor coactivator 3 (Homo sapiens, UniProt P37231). Nature of the assay: TR-FRET dose response biochemical High Throughput Screening assay for agonists of the steroid receptor coactivator 3 (SRC-3) recruitment by the peroxisome proliferator-activated receptor gamma (PPAR gamma): non-selective agonists. [Related pubchem assays: 1301 (Confirmation screen.), 1048 (Primary screen.)]. Format: functional. For orientation: Time-resolved FRET reads energy transfer from a long-lived donor to a nearby acceptor.

In assay [3] the target is Peroxisome proliferator-activated receptor gamma/Nuclear receptor coactivator 1 (Homo sapiens, UniProt P37231). As to the kind of experiment: TR-FRET dose response biochemical High Throughput Screening assay for agonists of the steroid receptor coactivator 1 (SRC-1) recruitment by the peroxisome proliferator-activated receptor gamma (PPAR gamma): non-selective agonists. [Related pubchem assays (depositor defined):AID1300, AID1808, AID504735, AID631]. It counts as protein assay.

In assay [4] the target is T1, Serine/threonine-protein phosphatase (Candida dubliniensis (strain CD36 / CBS 7987 / NCPF 3949 / NRRLY-17841) (Yeast), UniProt B9W6M3).
T1 sequence (B9W6M3 whole entry): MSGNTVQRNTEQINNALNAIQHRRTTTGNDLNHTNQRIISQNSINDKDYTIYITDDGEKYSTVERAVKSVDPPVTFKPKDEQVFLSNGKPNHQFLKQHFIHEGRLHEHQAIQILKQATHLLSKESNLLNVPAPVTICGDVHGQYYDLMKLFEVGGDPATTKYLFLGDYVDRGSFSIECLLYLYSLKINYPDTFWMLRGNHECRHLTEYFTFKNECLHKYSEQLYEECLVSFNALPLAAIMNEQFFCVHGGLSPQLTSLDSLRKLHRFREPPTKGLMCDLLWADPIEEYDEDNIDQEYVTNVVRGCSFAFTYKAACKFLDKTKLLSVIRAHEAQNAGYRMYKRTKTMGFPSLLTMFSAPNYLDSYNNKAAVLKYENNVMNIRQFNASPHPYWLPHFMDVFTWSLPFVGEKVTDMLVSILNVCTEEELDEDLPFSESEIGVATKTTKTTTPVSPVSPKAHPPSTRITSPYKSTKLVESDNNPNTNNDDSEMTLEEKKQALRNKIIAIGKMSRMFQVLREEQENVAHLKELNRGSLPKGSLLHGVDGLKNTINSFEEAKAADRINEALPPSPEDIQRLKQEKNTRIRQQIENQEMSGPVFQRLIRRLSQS
Nature of the assay: blockers of CaCl2-induced CDRE-lacZ signaling – S. cerevisiae, luminescence, secondary, dose response (AID 2388).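 Also: yeast reporter cells carrying a calcineurin-responsive lacZ construct stimulated with calcium chloride; luminescent beta-galactosidase reporter signal in whole cells rather than isolated phosphatase activity; potency for inhibition where a drop in reporter signal means calcineurin blockade.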 It counts as functional, cell-based.

Assay [5] in a line: NIH-3T3 fibroblast cytotoxicity, dose response, cytotoxicity control, cell-based, fluorescence, Alamar Blue, secondary assay (AID 2327).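 Also: NIH-3T3 mouse fibroblasts cultured with fluconazole at 8 µg/mL.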 Format: functional. In general terms: Alamar Blue is a resazurin reagent that responds to reducing activity.
The target of assay [6] is ATP-dependent molecular chaperone HSP82 (Candida albicans (strain WO-1) (Yeast), UniProt C4YTQ8). Nature of the assay: steroid-induced GRE reporter decrease in yeast – S. cerevisiae, luminescence, Hsp90 inhibitor project, dose response (AID 2400).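 Also: beta-galactosidase luminescence from glucocorticoid response element reporter as proxy for Hsp90 function; inhibitor potency where signal loss means Hsp90 inhibition.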 It counts as functional, cell-based.
A short description of assay [7]: fluconazole-exposed Candida albicans growth modulators – fluorescence, retest, confirmation (AID 2467). Format: functional, cell-based.
In another assay the target is Prothrombin (Bos taurus, UniProt P00735). As to the kind of experiment: thrombin protease inhibitors – biochemical, fluorescence polarization, uHTS hits, dose response (AID 602369). It counts as functional. A general note: Fluorescence polarisation rises when a labelled molecule tumbles more slowly, as on binding a larger partner.
For assay [8], the target named is 26S proteasome non-ATPase regulatory subunit 14 (Homo sapiens, UniProt O00487). As to the kind of experiment: inhibition of proteasome subunit RPN11 – biochemical, fluorescence polarization, uHTS hits, confirmation (AID 602368). Format: functional.
In assay [9] the target is 72 kDa type IV collagenase (Homo sapiens, UniProt P08253). As to the kind of experiment: Dose Response validation of uHTS RPN11 inhibitor hits using a MMP-2 Fluorescence assay. It counts as functional.
A further assay concerns the target T2, Phosphomannomutase 2 (Homo sapiens, UniProt O15305).
T2 sequence (O15305 whole entry): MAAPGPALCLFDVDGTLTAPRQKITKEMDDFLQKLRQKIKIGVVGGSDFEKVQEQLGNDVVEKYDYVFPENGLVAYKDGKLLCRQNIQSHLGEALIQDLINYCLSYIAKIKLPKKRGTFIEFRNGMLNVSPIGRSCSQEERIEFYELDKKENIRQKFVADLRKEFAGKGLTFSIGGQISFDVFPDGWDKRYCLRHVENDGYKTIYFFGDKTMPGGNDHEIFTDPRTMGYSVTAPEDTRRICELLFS
As to the kind of experiment: Counter screen SAR assay for PMM2 inhibitors via a fluorescence intensity assay. [Related pubchem assays (depositor defined):AID1545, AID1574].

Assay [10] addresses T3, Mannose-6-phosphate isomerase (Homo sapiens, UniProt P34949).
T3 sequence (P34949 whole entry): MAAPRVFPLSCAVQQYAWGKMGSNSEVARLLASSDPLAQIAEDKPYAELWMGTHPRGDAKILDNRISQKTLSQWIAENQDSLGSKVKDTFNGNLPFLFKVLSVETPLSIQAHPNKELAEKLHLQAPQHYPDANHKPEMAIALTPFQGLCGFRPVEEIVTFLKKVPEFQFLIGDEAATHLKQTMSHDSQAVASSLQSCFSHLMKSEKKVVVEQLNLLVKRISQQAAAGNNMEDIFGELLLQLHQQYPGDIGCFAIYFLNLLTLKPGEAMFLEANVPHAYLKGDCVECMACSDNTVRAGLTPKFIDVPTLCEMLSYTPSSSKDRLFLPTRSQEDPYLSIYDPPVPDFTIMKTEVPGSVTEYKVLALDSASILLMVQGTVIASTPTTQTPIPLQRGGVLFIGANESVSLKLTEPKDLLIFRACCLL
Nature of the assay: phosphomannose isomerase inhibition – biochemical, fluorescence intensity, confirmation (AID 1535).

The target in assay [11] is T4, Sentrin-specific protease 6 (Homo sapiens, UniProt Q9GZR1).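 Also: Luminescence-based dose-response confirmatory assay of SENP6 inhibition, following up an ultra-high-throughput screen.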
T4 sequence (Q9GZR1 whole entry): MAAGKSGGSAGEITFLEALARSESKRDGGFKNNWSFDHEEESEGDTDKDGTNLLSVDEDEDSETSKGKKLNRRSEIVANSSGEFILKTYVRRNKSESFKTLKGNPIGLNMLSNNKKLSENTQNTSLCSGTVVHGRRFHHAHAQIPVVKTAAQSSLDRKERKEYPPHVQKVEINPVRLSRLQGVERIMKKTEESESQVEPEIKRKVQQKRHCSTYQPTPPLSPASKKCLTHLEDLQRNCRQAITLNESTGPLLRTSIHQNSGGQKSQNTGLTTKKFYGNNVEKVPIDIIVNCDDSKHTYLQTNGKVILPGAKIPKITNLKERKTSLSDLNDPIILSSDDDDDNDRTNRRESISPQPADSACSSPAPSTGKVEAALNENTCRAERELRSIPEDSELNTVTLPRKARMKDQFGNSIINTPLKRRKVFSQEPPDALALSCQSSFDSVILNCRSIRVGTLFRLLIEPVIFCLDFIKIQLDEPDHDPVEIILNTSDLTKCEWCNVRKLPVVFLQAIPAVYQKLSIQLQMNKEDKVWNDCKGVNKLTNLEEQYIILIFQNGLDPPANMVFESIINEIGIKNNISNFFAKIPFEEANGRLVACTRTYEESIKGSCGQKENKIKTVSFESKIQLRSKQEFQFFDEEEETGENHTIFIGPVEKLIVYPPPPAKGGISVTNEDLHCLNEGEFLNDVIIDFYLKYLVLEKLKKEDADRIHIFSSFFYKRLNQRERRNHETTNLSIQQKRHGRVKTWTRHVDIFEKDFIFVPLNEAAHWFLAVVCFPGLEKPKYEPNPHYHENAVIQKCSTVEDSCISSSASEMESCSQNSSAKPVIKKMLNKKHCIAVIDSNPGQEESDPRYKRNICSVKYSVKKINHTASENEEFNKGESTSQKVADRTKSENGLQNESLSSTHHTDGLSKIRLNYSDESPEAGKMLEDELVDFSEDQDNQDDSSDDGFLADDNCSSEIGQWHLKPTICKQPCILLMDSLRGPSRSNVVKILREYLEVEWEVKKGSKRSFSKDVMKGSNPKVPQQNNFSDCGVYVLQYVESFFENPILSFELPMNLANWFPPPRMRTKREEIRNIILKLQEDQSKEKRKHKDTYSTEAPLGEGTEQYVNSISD
Format: functional.

The target in another assay is T5, Caspase-3 (Homo sapiens, UniProt P42574).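 Also: Dose-response selectivity test against caspase-3 for candidate inhibitors of sentrin-specific proteases (SENPs).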
T5 sequence (P42574 whole entry): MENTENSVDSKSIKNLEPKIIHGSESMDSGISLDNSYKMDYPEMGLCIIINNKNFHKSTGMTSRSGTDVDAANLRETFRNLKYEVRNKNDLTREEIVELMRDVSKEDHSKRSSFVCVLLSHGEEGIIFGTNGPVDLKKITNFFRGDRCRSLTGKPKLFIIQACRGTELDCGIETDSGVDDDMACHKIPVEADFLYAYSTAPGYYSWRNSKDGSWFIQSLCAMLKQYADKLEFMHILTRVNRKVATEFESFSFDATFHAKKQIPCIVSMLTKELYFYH
It counts as functional.

For assay [12], the target named is T6, Sentrin-specific protease 7 (Homo sapiens, UniProt Q9BQF6).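 Also: Luminescence-based dose-response confirmation of ultra-high-throughput screening hits, measuring inhibition of SENP7.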
T6 sequence (Q9BQF6 whole entry): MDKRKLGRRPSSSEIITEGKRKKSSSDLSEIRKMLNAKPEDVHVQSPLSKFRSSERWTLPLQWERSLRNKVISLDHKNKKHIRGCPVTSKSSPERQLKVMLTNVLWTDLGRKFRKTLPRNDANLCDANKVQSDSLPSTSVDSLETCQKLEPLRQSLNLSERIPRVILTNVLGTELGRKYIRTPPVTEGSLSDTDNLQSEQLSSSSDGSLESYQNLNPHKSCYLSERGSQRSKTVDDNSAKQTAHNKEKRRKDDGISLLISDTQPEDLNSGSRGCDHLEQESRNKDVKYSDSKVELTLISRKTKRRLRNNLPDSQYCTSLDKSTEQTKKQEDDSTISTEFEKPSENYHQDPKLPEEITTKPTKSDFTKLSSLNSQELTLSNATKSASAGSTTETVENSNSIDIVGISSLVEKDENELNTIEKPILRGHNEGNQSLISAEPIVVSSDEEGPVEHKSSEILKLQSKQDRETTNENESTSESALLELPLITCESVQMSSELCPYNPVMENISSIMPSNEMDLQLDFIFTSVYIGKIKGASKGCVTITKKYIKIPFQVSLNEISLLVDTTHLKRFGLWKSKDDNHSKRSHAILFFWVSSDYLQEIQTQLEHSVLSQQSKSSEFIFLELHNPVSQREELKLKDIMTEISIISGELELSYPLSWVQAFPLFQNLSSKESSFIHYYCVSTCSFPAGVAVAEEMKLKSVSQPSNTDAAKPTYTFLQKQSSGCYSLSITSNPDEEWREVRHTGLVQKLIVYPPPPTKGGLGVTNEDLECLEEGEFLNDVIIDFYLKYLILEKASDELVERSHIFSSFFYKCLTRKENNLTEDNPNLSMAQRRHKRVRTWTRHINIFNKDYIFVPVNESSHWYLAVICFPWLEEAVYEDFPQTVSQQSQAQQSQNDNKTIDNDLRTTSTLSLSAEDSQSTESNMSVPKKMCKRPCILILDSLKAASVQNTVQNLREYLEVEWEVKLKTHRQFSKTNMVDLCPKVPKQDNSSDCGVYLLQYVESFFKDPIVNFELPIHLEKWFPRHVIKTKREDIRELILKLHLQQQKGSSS
Format: functional.

Assay [13] deals with T7, Sentrin-specific protease 8 (Homo sapiens, UniProt Q96LD8).
T7 sequence (Q96LD8 whole entry): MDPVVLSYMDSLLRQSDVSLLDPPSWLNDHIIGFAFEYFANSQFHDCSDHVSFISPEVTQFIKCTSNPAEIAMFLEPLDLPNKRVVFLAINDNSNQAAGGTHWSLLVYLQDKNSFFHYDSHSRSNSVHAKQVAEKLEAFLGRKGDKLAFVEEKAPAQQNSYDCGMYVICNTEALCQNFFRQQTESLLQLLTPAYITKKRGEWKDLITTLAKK
Format: functional.

Sequence of Peroxisome proliferator-activated receptor gamma/Nuclear receptor coactivator 3 (P37231 whole entry): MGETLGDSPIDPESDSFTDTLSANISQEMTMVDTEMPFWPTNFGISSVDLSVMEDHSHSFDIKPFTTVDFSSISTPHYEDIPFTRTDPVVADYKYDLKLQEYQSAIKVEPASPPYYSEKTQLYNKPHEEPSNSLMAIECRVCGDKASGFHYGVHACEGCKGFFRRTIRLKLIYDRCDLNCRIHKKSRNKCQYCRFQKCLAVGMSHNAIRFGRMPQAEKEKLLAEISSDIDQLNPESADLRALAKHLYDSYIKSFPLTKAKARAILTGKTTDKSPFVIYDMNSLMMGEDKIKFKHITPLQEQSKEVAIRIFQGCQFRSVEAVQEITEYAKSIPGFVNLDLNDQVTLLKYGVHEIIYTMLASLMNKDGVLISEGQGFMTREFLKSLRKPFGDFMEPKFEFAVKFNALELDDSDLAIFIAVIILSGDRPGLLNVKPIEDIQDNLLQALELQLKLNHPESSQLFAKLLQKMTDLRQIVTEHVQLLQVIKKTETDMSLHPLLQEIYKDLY
Sequence of Peroxisome proliferator-activated receptor gamma/Nuclear receptor coactivator 3 (Q9Y6Q9 whole entry, further chain): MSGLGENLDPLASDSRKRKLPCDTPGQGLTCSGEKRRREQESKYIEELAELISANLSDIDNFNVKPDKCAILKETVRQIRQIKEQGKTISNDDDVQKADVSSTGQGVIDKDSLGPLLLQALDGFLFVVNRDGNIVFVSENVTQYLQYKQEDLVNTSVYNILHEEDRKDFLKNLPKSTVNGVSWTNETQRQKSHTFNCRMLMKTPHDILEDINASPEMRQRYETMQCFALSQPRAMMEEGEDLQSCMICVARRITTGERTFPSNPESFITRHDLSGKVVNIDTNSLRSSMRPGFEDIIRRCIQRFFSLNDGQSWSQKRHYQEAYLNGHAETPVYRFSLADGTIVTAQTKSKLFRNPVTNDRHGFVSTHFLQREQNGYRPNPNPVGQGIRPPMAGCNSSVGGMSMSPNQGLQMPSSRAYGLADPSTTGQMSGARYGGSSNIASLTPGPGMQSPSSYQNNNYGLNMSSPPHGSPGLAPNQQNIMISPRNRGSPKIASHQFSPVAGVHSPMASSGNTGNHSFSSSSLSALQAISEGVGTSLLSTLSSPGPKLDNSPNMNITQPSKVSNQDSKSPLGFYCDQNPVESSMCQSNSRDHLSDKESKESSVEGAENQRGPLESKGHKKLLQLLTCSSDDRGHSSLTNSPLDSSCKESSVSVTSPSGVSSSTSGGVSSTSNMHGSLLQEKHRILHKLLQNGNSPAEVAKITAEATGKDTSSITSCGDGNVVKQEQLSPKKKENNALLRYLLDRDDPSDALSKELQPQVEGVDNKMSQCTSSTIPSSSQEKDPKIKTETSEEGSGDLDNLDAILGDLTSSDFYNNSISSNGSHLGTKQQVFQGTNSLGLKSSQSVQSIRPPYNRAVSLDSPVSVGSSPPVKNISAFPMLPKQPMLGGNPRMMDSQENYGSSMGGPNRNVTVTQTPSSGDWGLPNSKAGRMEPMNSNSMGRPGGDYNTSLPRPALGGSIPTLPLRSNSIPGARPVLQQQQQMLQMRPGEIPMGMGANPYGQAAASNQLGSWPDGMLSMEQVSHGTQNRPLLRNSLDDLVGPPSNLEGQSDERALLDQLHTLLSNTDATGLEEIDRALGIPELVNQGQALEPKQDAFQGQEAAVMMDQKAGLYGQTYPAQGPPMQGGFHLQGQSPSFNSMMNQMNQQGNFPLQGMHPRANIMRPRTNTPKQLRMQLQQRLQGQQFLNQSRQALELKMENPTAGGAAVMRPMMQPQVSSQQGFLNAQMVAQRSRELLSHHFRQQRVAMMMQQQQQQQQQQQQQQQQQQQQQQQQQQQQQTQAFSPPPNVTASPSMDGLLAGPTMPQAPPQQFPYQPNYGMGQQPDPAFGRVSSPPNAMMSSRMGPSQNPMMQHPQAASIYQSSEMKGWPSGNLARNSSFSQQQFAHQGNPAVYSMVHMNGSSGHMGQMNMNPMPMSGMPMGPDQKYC
Sequence of Peroxisome proliferator-activated receptor gamma/Nuclear receptor coactivator 2 (P37231 whole entry): as the sequence (P37231 whole entry) above
Sequence of Peroxisome proliferator-activated receptor gamma/Nuclear receptor coactivator 2 (Q15596 whole entry, further chain): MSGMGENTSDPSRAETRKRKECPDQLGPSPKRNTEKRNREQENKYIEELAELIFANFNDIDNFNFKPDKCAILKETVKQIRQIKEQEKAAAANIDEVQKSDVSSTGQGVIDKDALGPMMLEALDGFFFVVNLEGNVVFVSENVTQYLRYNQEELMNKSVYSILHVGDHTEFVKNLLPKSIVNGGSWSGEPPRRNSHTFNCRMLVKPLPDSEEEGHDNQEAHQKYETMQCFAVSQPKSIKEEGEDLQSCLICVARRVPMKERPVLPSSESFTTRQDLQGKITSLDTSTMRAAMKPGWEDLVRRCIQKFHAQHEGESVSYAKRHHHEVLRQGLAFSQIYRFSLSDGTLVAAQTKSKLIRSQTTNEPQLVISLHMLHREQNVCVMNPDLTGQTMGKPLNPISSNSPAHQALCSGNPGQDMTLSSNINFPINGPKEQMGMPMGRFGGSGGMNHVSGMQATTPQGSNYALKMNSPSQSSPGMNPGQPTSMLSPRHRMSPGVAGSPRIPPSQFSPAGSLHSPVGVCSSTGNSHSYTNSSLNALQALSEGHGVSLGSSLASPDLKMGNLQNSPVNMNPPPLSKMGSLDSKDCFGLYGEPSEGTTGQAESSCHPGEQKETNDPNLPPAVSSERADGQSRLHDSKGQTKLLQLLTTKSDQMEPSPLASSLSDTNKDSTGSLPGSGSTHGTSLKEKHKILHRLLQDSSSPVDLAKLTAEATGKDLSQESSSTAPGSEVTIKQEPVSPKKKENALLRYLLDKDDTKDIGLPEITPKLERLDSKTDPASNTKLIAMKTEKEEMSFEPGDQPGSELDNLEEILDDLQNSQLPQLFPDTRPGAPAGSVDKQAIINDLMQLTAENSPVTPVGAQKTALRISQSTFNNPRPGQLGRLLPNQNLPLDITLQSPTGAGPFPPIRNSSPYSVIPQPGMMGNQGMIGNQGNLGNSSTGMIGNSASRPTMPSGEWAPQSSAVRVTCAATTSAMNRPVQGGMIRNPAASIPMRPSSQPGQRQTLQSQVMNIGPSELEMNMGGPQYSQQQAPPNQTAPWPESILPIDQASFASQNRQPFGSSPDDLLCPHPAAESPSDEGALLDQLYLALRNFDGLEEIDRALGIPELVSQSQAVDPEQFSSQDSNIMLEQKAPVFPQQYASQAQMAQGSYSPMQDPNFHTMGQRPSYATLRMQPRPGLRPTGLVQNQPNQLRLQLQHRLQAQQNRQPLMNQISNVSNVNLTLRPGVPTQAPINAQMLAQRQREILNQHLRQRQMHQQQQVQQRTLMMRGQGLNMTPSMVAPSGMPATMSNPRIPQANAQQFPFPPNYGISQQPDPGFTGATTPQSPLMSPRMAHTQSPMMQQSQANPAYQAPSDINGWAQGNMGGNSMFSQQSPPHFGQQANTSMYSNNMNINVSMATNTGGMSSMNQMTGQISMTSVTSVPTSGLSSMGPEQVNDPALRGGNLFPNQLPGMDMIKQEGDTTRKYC
Sequence of 26S proteasome non-ATPase regulatory subunit 14 (O00487 whole entry): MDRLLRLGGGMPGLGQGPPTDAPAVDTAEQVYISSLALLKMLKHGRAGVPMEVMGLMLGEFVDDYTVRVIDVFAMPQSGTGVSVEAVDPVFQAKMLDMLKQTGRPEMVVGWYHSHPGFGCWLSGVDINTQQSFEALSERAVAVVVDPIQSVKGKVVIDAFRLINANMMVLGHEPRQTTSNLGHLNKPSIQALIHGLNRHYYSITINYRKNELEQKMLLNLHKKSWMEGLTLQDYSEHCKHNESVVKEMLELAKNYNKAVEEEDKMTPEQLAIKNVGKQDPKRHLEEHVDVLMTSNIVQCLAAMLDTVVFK
Sequence of 72 kDa type IV collagenase (P08253 whole entry): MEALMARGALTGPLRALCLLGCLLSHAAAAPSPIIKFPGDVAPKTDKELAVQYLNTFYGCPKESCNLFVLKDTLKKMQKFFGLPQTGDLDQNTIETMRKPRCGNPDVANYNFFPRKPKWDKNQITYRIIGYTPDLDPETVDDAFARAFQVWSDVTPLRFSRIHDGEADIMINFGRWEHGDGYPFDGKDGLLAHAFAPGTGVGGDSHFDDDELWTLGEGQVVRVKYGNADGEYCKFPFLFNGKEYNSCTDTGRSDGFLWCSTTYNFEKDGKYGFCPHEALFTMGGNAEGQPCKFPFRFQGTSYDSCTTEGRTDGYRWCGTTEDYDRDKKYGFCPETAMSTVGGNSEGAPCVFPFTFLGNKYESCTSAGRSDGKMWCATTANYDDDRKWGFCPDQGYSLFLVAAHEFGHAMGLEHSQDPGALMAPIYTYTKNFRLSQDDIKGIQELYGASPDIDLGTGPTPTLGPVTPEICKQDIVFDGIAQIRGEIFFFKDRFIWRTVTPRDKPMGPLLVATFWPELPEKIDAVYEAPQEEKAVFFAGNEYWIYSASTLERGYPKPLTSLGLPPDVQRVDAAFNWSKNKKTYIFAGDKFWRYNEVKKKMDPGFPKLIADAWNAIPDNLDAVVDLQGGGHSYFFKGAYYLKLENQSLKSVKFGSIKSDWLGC

For orientation: EC50 means the midpoint of the concentration-response curve. Regarding `CCSc1nnc(-c2ccccc2SC)o1`, the EC50 in assay [1] was 237 µM (not active); in [2], > 79.4 µM (not active); in assay [3], > 79.4 µM (inactive).
Taken in the same sequence, the figures for `CC(C)OC(=O)CNc1nnc(S)nc1O` were 2.47 µM (active), 21.7 µM (not active) and 2.28 µM (active).
For `O=[N+]([O-])c1ccc(O)c(P(=O)(c2ccccc2)c2ccccc2)c1`, the EC50 in [4] was > 180 µM (inactive); in assay [5] it was > 150 µM (inactive); in [6], > 150 µM (inactive); in assay [7], 0.698 µM (active).
As to `NC(=O)CSc1ncnc2c1oc1ccccc12`, the EC50 is > 26.5 µM (not active) in assay [1], > 79.4 µM (not active) in [2] and 27.6 µM (inactive) in [3].
For orientation: IC50 means the concentration that inhibits the measured activity by half. Take `Cc1ccc(NC(=O)C(C)SCc2nc(O)c3c4c(sc3n2)CCCC4)nc1` (stereo not drawn): the IC50 was 17.2 µM (active) at Prothrombin, 21.9 µM (active) in [8] and > 100 µM (inactive) in assay [9].
For `Cc1ccncc1/N=c1\ssnc1Cl`, the figures for the IC50 (on Phosphomannomutase 2; in assay [10]) were > 100 µM (inactive) and 34 µM (active), respectively.
On to `CC1=CC2=NC(=O)/C(=C\c3c(C)[nH]c4ccc(C)cc34)C(=N)N2O1`, for which the results for the IC50 (on Prothrombin; in [8]; in assay [9]) were 32.1 µM (active), 33.3 µM (active) and > 100 µM (inactive), respectively.
Take `Fc1ccc(-c2nnsc2Sc2ccccn2)cc1`: the 50% effective concentration (EC50) in [1] was 11.8 µM (not active); in assay [2], 16.1 µM (not active); in assay [3], 8.31 µM (active).
Regarding `CCOC(=O)c1ccc(NC(=O)c2cc3ccccc3o2)cc1`, the IC50 in assay [11] is 7.74 µM (active); on Caspase-3, 23.7 µM (active); in assay [12], 5.71 µM (active); in assay [13] it was > 100 µM (inactive).
